Assays:
[1] = molecular target: T1, A1 human adenosine receptor (A1R) (Homo sapiens, UniProt P30542); experiment: Radioligand binding competition assay, human A1 receptor in transfected CHO cells; conditions: for inhibition at 0.1 µM: 0.1 µM compound, read-out: % displacement at 0.1 μM (A1R); for Ki: Cheng-Prusoff approximation
T1 construct: expressed in transfected cells; host or cells: CHO
T1 sequence (P30542 1-326): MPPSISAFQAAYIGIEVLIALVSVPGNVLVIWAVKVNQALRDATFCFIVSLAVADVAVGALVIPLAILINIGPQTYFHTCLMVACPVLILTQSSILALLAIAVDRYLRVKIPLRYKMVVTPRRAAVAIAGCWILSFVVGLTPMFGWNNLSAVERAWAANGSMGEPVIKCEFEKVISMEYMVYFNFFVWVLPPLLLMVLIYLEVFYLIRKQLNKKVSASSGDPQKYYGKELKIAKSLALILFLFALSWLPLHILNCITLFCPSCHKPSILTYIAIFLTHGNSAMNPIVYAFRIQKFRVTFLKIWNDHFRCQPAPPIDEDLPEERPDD
Description: Pharmacological evaluation was performed in a radioligand binding competition assay, using A1, A2A, A2B, and A3 human receptors expressed in transfected CHO (A1), HeLa (A2A and A3), and HEK-293 (A2B) according to the procedure reported by Bosch et al. [78].

[2] = molecular target: T2, A2A human adenosine receptor (A2AR) (Homo sapiens, UniProt P29274); experiment: Radioligand binding competition assay, human A2A receptor in transfected HeLa cells; conditions: for Ki: Cheng-Prusoff approximation; for % displacement at 0.1 μM (A2AR): 0.1 µM compound
T2 construct: expressed in transfected cells; host or cells: HeLa
T2 sequence (P29274 whole entry): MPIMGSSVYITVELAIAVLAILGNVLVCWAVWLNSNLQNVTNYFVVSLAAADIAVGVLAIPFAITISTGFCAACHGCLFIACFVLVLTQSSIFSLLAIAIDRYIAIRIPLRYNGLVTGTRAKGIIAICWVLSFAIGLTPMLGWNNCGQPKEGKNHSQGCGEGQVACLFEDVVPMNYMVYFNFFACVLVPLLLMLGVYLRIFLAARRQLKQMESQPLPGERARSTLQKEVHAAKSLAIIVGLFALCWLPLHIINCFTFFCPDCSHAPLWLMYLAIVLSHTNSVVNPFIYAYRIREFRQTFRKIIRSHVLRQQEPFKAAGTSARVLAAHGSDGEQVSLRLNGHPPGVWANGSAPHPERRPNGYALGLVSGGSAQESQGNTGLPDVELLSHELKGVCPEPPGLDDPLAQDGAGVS
Description: (§1) Bioactivity testing was performed using A1 and A2A human adenosine receptors expressed in transfected CHO (A1) and HeLa (A2A) cells, as well as AD293 cells that were transiently transfected with human PDE10A. Table 1 includes the list of synthesized 4,6-substituted 2-amino-pyridin-3-carbonitriles, along with their Ki values against A1R, A2AR, and IC50 values against PDE10A.
(§2) Pharmacological evaluation was performed in a radioligand binding competition assay, using A1, A2A, A2B, and A3 human receptors expressed in transfected CHO (A1), HeLa (A2A and A3), and HEK-293 (A2B) according to the procedure reported by Bosch et al..

[3] = molecular target: T3, A2B human receptor (A2BR) (Homo sapiens, UniProt P29275); experiment: Radioligand binding competition assay, human A2B receptor in transfected HEK-293 cells; conditions: 0.1 µM compound; read-out: percentage displacement at 0.1µM (A2BR)
T3 construct: expressed in transfected cells; host or cells: HEK-293
T3 sequence (P29275 1-332): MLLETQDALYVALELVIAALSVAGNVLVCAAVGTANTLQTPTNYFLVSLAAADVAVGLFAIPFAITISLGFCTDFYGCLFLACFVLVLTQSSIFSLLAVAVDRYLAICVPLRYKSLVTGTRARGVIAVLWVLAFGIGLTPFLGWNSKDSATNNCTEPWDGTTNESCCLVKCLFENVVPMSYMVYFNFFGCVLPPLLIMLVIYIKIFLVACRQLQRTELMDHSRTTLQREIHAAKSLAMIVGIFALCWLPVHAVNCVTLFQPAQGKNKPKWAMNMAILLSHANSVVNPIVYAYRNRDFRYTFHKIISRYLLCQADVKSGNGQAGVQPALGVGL
Description: as §2

[4] = molecular target: T4, A3 human receptor (A3R) (Homo sapiens, UniProt P0DMS8); experiment: Radioligand binding competition assay, human A3 receptor in transfected HeLa cells; conditions: 0.1 µM compound; read-out: percentage displacement at 0.1µM (A3R)
T4 construct: expressed in transfected cells; host or cells: HeLa
T4 sequence (P0DMS8 1-318): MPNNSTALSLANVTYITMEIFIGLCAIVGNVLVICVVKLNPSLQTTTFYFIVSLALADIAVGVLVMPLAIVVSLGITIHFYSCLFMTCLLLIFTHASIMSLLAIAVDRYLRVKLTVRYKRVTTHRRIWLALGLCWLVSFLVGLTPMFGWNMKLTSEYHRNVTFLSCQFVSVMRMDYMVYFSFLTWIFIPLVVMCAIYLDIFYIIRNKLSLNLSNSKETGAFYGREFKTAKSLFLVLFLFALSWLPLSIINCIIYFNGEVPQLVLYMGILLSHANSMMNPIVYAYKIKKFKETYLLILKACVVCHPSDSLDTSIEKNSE
Description: as §2

[5] = molecular target: T5, human PDE10A (Homo sapiens, UniProt Q9Y233); experiment: Phosphodiesterase activity, AD293 cells transiently transfected with human PDE10A; assay type: biochemical; conditions: for IC50: mean of 3 experiments in duplicate; for inhibition at 10 µM: read-out: % inhibition at 10 μM (PDE10A), 10 μM compound
T5 construct: expressed in transfected cells; host or cells: AD293 (transient transfection)
T5 sequence (Q9Y233 267-1055 limits assumed): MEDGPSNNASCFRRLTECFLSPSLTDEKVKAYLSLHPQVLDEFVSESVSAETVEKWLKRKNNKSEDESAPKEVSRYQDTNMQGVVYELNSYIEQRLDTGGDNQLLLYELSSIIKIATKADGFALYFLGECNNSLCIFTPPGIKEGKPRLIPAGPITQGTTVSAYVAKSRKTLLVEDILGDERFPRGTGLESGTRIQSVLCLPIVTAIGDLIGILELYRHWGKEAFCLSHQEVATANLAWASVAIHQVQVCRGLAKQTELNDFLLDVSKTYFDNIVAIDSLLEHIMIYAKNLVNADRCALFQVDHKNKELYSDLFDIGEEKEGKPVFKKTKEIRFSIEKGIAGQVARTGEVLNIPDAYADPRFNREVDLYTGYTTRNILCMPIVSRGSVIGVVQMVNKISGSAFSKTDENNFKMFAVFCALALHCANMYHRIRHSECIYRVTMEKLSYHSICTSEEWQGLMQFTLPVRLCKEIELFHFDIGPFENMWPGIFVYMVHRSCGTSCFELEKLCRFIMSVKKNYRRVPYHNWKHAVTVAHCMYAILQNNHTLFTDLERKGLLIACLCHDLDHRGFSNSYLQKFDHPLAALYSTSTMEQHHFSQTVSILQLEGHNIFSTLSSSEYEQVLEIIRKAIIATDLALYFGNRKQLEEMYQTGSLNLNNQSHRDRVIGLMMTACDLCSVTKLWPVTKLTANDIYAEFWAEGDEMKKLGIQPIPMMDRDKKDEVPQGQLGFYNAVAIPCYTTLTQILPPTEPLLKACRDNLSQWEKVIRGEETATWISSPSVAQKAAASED
Description: as §1
(§3) The activity measurements against the phosphodiesterases PDE7A, PDE7B, PDE9A and PDE10A were performed using AD293 cells that were transiently and separately transfected with human PDE7A, PDE7B, PDE9A, and PDE10A following the procedure described by Shipe et al..

[6] = molecular target: T6, human PDE7A (Homo sapiens, UniProt Q13946); experiment: Phosphodiesterase activity, AD293 cells transiently transfected with human PDE7A; assay type: biochemical; conditions: for inhibition at 10 µM: 10 µM compound, read-out: Percentage inhibition at 10µM (PDE7A)
T6 construct: expressed in transfected cells; host or cells: AD293 (transient transfection)
T6 sequence (Q13946 whole entry): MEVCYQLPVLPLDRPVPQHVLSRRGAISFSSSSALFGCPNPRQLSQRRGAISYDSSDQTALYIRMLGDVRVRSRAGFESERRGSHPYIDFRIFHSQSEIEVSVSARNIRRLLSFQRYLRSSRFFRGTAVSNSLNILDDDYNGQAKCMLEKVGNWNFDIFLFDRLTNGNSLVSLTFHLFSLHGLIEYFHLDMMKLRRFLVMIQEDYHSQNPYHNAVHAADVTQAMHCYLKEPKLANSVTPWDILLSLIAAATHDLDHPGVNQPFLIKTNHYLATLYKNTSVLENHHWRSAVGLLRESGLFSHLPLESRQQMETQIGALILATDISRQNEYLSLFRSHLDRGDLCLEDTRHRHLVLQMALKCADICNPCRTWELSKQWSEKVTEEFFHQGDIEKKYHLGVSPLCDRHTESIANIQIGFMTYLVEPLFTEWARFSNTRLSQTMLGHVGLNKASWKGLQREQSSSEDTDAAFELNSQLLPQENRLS
Description: as §3

[7] = molecular target: T7, human PDE7B (Homo sapiens, UniProt Q9NP56); experiment: Phosphodiesterase activity, AD293 cells transiently transfected with human PDE7B; assay type: biochemical; conditions: for inhibition at 10 µM: 10 µM compound, read-out: Percentage inhibition at 10µM (PDE7B)
T7 construct: expressed in transfected cells; host or cells: AD293 (transient transfection)
T7 sequence (Q9NP56 whole entry): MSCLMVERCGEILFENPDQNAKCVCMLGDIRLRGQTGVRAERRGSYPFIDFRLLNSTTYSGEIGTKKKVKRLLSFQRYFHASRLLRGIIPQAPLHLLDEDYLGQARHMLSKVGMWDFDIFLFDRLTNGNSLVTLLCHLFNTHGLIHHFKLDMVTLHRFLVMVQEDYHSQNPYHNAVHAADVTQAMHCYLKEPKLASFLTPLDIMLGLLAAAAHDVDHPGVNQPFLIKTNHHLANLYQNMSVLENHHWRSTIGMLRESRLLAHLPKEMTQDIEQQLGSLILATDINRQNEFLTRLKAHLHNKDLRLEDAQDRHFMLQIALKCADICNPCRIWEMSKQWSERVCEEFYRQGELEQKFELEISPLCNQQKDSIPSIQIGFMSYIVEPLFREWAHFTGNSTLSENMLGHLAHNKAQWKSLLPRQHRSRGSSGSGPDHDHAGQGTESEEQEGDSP
Description: as §3

[8] = molecular target: T8, human PDE9A (Homo sapiens, UniProt O76083); experiment: Phosphodiesterase activity, AD293 cells transiently transfected with human PDE9A; assay type: biochemical; conditions: 10 µM compound; read-out: Percentage inhibition at 10µM (PDE9A)
T8 construct: expressed in transfected cells; host or cells: AD293 (transient transfection)
T8 sequence (O76083 whole entry): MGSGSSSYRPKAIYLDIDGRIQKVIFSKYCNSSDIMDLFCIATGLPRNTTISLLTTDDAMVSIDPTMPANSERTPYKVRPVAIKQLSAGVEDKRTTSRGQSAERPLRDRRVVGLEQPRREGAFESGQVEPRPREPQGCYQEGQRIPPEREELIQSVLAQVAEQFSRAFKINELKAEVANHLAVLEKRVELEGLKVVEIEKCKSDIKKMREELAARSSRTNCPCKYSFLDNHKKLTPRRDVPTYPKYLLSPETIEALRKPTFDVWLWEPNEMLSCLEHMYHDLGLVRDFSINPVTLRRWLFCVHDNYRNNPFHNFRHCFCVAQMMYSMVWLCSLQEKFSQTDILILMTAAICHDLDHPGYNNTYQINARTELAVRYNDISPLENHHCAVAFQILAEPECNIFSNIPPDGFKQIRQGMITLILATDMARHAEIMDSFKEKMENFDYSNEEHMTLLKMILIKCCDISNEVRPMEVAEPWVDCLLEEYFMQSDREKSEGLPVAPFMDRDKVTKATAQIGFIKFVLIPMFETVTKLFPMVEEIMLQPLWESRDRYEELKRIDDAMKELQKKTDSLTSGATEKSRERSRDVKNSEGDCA
Description: as §3

Row | SMILES | inhibition at 0.1 µM [1] | Ki [2] | inhibition at 0.1 µM [3] | inhibition at 0.1 µM [4] | IC50 [5] | inhibition at 10 µM [6] | IC50 [7] | inhibition at 10 µM [8] | % displacement at 0.1 μM (A2AR) [2] | inhibition at 10 µM [7] | inhibition at 10 µM [5] | IC50 [6] | Ki [1]
1 | N#Cc1c(-c2ccco2)cc(-c2ccsc2)nc1N [Compound 25, 2-amino-4-(furan-2-yl)-6-(thiophen-3-yl)pyridine-3-carbonitrile] | 15% | 0.055 ± 0.002 µM | 5% | 2% | 5.1 ± 0.4 µM | 48% | 4.7 µM | 14% |  |  |  |  | 
2 | COc1ccccc1-c1cc(-c2ccccc2C)nc(N)c1C#N [Compound 20, 2-amino-4-(2-methoxyphenyl)-6-(2-methylphenyl)pyridine-3-carbonitrile] | 12% |  | 3% | 6% | 6.4 ± 0.4 µM | 31% |  | 12% | 50% | 23% |  |  | 
3 | COc1ccccc1-c1cc(-c2ccccc2)nc(N)c1C#N [Compound 5, 2-amino-4-(2-methoxyphenyl)-6-phenylpyridine-3-carbonitrile] | 53% | 0.543 ± 0.013 µM | 5% | 26% |  | 24% |  | 3% |  | 30% | 28% |  | 
4 | COc1ccccc1-c1cc(-c2ccc(O)cc2)nc(N)c1C#N [Compound 22, 2-amino-6-(4-hydroxyphenyl)-4-(2-methoxyphenyl)pyridine-3-carbonitrile] | 8% |  | 1% | 2% | 5.6 ± 0.5 µM | 63% |  | 9% | 1% | 16% |  |  | 
5 | COc1ccc(-c2cc(-c3ccc(O)cc3)nc(N)c2C#N)cc1 [Compound 17, 2-amino-6-(4-hydroxyphenyl)-4-(4-methoxyphenyl)pyridine-3-carbonitrile] | 46% |  | 1% | 8% |  |  |  | 7% | 29% | 44% | 65% | 3.5 µM | 
6 | COc1ccc(-c2cc(-c3ccccc3F)nc(N)c2C#N)cc1 [Compound 14, 2-amino-6-(2-fluorophenyl)-4-(4-methoxyphenyl)pyridine-3-carbonitrile] |  |  | 1% | 27% |  | 22% |  | 7% | 30% | 20% | 10% |  | 0.108 ± 0.006 µM
7 | COc1ccc(-c2cc(-c3ccccc3)nc(N)c2C#N)c(OC)c1 [Compound 6, 2-amino-4-(2,4-dimethoxyphenyl)-6-phenylpyridine-3-carbonitrile] | 12% |  | 1% | 6% | 5.7 ± 0.3 µM | 51% |  | 1% | 1% | 27% |  |  | 
8 | N#Cc1c(-c2ccccc2)cc(-c2ccc(O)cc2)nc1N [Compound 2, 2-amino-6-(4-hydroxyphenyl)-4-phenylpyridine-3-carbonitrile] |  |  | 2% | 2% |  | 47% |  | 1% | 38% | 39% | 52% |  | 0.142 ± 0.007 µM
9 | N#Cc1c(-c2ccccc2)cc(-c2ccc(F)cc2)nc1N [Compound 1, 2-amino-6-(4-fluorophenyl)-4-phenylpyridine-3-carbonitrile] |  |  | 2% | 27% |  | 9% |  | 1% | 32% | 28% | 22% |  | 0.394 ± 0.012 µM
